Results taken from patent US7795255B2, “Rigidified compounds for modulating heparanase activity” (InSight Biopharmaceuticals Ltd., priority 2005, dated 2010).

Legend:
[1] = system: human prostatic cancer PC3 cells; assay: In-vitro assay for inhibition of cell invasion (PC3); assay type: cell-based; conditions: PC-3, PC3 cells (second value of cell), read-out: IC50 Invasion MB231/PC3/A375
Protocol: (§1) In-vitro assay for inhibition of cell invasion: The ability of the rigidified compounds described herein to inhibit cell invasion was determined quantitatively using BD Biocoat FluoroBlok Invasion System (BD, cat No. FAL354165). MDA-MB231 breast cancer cells, human prostatic cancer PC3 cells and A375 melanoma cells were used for this assay. Cells (5×10^4 cells/ml) were pre-incubated with the compounds for 48 hours prior to the assay, at 37° C. and a 5% CO2 atmosphere.
(§2) Serial dilutions of each compound starting from a concentration which was previously found to be non-toxic to the cells (using Oxygen Biosensor System, BD), were prepared in DMSO and added to the cells to a final concentration of 1% DMSO. At the end of the pre-incubation, cells at each compound concentration were counted and 2×10^4 cells/well in basic medium were applied onto the top chamber of the insert of the Invasion system. 750 μl complete medium with 5% fetal calf serum was added to the bottom chambers. The tested compound was applied to the top and bottom chambers. Invasion plates were incubated for 22 hours at 37° C. and a 5% CO2 atmosphere. […]
(§3) Fluorescence of invaded cells was read in a fluorescence plate reader BMG POLARstar Galaxy, BMG at excitation/emission wavelength of 485/530 nm.

heparanase (H53) = molecular target: T1, heparanase (H53) (Homo sapiens, UniProt Q9Y251); assay: Heparanase (H53) assay (DMB assay); assay type: biochemical
T1 construct: The 45 kDa major subunit and the 8 kDa small subunit hetero-complex to form the 53 kDa active form of heparanase
T1 sequence (Q9Y251 36-109 limits assumed): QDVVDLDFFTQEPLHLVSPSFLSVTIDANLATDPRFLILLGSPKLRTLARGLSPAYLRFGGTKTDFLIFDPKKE
T1 sequence (Q9Y251 158-543 limits assumed): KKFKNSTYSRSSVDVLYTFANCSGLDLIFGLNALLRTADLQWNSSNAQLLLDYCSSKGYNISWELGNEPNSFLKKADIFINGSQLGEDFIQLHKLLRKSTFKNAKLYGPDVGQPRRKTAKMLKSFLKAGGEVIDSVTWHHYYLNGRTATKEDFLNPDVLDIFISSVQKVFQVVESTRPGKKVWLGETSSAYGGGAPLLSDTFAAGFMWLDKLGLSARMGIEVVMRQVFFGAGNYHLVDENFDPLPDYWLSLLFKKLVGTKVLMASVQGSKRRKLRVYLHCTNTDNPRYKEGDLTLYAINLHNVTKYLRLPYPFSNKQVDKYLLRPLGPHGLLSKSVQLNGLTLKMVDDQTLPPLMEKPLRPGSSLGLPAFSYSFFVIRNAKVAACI
Protocol: Heparanase (H53) assay: The rigidified compounds described herein were tested for inhibition of heparanase activity in the DMB assay described in U.S. Pat. No. 6,190,875. IC50 was calculated from inhibition curves of all active compounds.

β-FGF = β-FGF (Homo sapiens, UniProt P09038); assay: ELISA for determination of binding of β-FGF to heparin; conditions: inhibition of β-FGF binding to heparin; NI = no inhibition
How it was run: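 Plates coated 2 h at 23-25° C with 5 μg/ml heparin-albumin, blocked with 1% BSA/PBS/0.05% Tween; 10 ng/ml β-FGF bound 45 min at 23-25° C. Bound β-FGF detected with anti-FGF mAb (2.5 ng/ml) plus HRP anti-mouse IgG and TMB; absorbance at 450 nm, 630 nm reference.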

A375 melanoma cells = assay: In-vitro assay for inhibition of cell invasion (A375); assay type: cell-based; conditions: Homo sapiens, A-375; A375 cells (third value of cell); read-out: IC50 Invasion MB231/PC3/A375
Protocol: as §1, §2, §3

[2] = molecular target: T2, vascular endothelial growth factor (VEGF) (Homo sapiens, UniProt P15692); assay: ELISA for determination of binding of VEGF to heparin; conditions: inhibition of VEGF binding to heparin; NI = no inhibition
T2 sequence (P15692 27-191 isoform P15692-4): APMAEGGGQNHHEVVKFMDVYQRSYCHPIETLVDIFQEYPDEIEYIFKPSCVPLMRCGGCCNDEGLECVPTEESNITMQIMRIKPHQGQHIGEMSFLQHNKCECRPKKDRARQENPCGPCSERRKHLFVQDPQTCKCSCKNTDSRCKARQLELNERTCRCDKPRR
How it was run: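 Binding of 10 ng/ml VEGF to plates coated with 5 μg/ml heparin-albumin (45 min, 23-25° C), detected with anti-VEGF antibody (0.26 μg/ml) plus HRP secondary and TMB, read at 450/630 nm. Percent inhibition versus a 1% DMSO pre-incubated control.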

[3] = system: MDA-MB231 breast cancer cells; assay: In-vitro assay for inhibition of cell invasion (MDA-MB231); assay type: cell-based; conditions: Homo sapiens; MB231 cells (first value of cell); read-out: IC50 Invasion MB231/PC3/A375
Protocol: as §1
Serial dilutions of each compound starting from a concentration which was previously found to be non-toxic to the cells (using Oxygen Biosensor System, BD), were prepared in DMSO and added to the cells to a final concentration of 1% DMSO. At the end of the pre-incubation, cells at each compound concentration were counted and 2×10^4 cells/well in basic medium were applied onto the top chamber of the insert of the Invasion system. 750 μl complete medium with 5% fetal calf serum was added to the bottom chambers. The tested compound was applied to the top and bottom chambers. Invasion plates were incubated for 22 hours at 37° C. and a 5% CO2 atmosphere.
At the end of the incubation, medium was aspirated from the upper chambers and the inserts were transferred to a plate containing Calcein AM (Molecular Probes), 4 μg/ml and incubated for 90 minutes at 37° C. and a 5% CO2 atmosphere.
as §3

[4] = molecular target: T3, recombinant human pro-heparanase (H60) (Homo sapiens, UniProt Q9Y251); assay: Pro-heparanase (H60) activation in a cell-based assay; conditions: inhibition of pro-heparanase activation in CHO cells; NI = no inhibition
T3 construct: Heparanase maturation involves the removal of the signal peptide, transforming the 65 kDa pre-pro-heparanase into a 60 kDa pro-heparanase; made in house
T3 sequence (Q9Y251 36-543): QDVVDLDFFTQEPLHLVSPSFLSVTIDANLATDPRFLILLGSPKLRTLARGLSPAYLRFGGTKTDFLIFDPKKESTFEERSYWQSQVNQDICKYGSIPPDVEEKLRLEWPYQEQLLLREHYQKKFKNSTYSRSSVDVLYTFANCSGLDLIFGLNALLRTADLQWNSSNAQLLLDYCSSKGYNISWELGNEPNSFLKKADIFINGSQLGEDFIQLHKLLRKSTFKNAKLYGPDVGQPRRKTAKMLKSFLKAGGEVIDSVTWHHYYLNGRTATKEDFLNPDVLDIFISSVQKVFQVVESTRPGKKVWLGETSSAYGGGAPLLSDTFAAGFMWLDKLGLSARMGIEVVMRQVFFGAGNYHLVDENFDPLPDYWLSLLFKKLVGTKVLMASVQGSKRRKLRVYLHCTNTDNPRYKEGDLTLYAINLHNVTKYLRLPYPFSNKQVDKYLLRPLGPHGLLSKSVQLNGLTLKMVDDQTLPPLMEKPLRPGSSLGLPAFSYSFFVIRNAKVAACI

Chain of β-FGF (P09038 143-288): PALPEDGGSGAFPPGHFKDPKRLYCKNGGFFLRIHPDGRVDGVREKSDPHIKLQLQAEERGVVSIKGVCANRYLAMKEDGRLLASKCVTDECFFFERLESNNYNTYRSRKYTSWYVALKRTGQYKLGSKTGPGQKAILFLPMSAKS

IC50 [1]: 50 nM
dual activity: inhibition of pro-heparanase activation (H60) and of heparanase activity (H53) (heparanase (H53); compounds with an acidic group): dual activity
IC50 (heparanase (H53); inhibition of heparanase activity, DMB assay, NI = no inhibition): 34800 nM
IC50 (β-FGF): 2800 nM
IC50 (A375 melanoma cells): 2000 nM
IC50 [2]: 2400 nM
IC50 [3]: 22 nM
IC50 [4]: 230 nM
SMILES: CC(C)(CC(=O)N1CCC[C@H]1C(=O)O)CN1C(=O)c2cc3oc(-c4ccc(Cl)cc4)cc3n2C1=S [Compound 22, 1-{4-[2-(4-Chloro-phenyl)-6-oxo-4-thioxo-6H-1-oxa-3b,5-diaza-cyclopenta[a]pentalen-5-yl]-3,3-dimethyl-butyryl}-pyrrolidine-2-carboxylic acid]
